In data set [1] the test system is vertebral artery blood flow of a dog. As to the kind of experiment: Vertebral artery blood flow increasing activity. Type of data set: in vivo, dog (mongrel). The note with it: i.v., amount with same activity as 1 mg/kg (i.v.) papaverine hydrochloride, ratio to papaverine hydrochloride. The procedure: (§1) The compounds of this invention to be tested were used in the form of a hydrochloride.
The vertebral artery blood flow of a dog (mongrel, 12-22 kg, 2-3 heads per group) anesthetized with pentobarbital sodium (30 mg/kg, i.v.) was measured by means of an electromagnetic flow meter (MFV-2100 manufactured by Nihon Kohden Kogyo).
The test compounds 1, 3 and 10 were adjusted to a concentration of 1 mg/ml with distilled water, and then diluted with a saline solution to the desired concentrations, after which the thus diluted solutions were intravenously administered, and the test compounds 12, 15, 18, 19, 20, 24, 29, 30, 32 and 33 were formed into solutions in the same manner as in Item 1 above and then intravenously administered.

In data set [2] the test system is mouse pulmonary infraction model. Put plainly: Antithrombosis activity, mouse pulmonary infraction model, paralytic time-shortening (0.15 ml epinephrine/collagen). Type of data set: in vivo, mouse (ICR strain). The note with it: 1 h, oral, challenge after one hour, 10 mice, read-out: Paralytic time-shortening percentage. The procedure:
as §1
Comparing the paralytic time of the control group, the paralytic time-shortening percentage due to the compound to be tested was determined.
(§2) The test compounds shown in Table 4 were adjusted to the desired concentrations with water, and the test compounds shown in Table 5 were adjusted to a concentration of 5 mg/ml with an aqueous solution containing 10% by volume of each of dimethyl sulfoxide and Cremophor, and then diluted with water to the desired concentrations.

Data set [3] is described as follows: Acute toxicity, intravenous, mice. The note with it: mouse, in vivo, mice (ICR, male, 4 weeks old, 5 per group).
Data set [4] concerns Thromboxane-Synthesizing Enzyme. As to the kind of experiment: Thromboxane-synthesizing enzyme-inhibitory activity (MDA production in platelet-rich plasma after oral dosing). Type of data set: in vivo, rat (Wistar strain). The note with it: rat, 3 mg/kg, blood after one hour. The procedure:
as §1
To a rat (Wistar strain, male, 300-350 g, 4 heads per group) which had been starved overnight was orally administered a test compound solution, and blood was collected from the abdominal aorta using citric acid after one hour. Two milliliters of a 1×10^9 /ml platelet-rich plasma (PRP) was preincubated at 37° C. for 2 minutes. Subsequently, 0.1 ml of 10 mM sodium archidonate was added, and the resulting mixture was subjected to reaction for 6 minutes, after which indomethacin was added thereto to terminate the reaction. The reaction mixture was subjected to deproteinization treatment and reacted with thiobarbituric acid (TBA) reagent, after which the reaction mixture was subjected to extraction with 3 ml of n-butanol. The resulting extract was subjected to colorimetry (λ=532 nm) to determine the amount of malondialdehyde (MDA) produced. As to the platelet-poor plasma (PPP) obtained from the same rat as above, the same procedure as above was repeated to determine the amount of MDA produced, and the difference between the two is indicated as MDA value. Comparing with the MDA values of the control group, the MDA production-inhibition (%) was determined.
The test compounds 1-9 were adjusted to the desired concentrations with water and the test compounds 11-33 and nicardipine were adjusted to a concentration of 5 mg/ml with an aqueous solution containing 10% of each of dimethyl sulfoxide and Cremophor and then diluted with water to the desired concentrations.

The subject of data set [5] is coronary vessel (isolated guinea pig heart). Put plainly: Coronary vasodilating activity (isolated perfused guinea pig heart, coronary effluent). Details: species or system guinea pig (Hartley strain). The conditions noted are these: Langendorff perfusion, 0.1 ml into aorta, hydrochloride. The procedure: as §1
The heart of a guinea pig (Hartley strain, male, 500-700 g, 3 heads per group) was isolated and set in the Landendorff perfusing apparatus. About 0.5% defibrinated blood was fed to the apparatus, and the Krebs bicarbonate solution, into which a mixed gas consisting of 95% of O2 and 5% of CO2 had been bubbled was perfused over the heart, after which a 1 mg/ml solution of the test compound in an aqueous solution containing 10% by volume of dimethylsulfoxide and 10% of polyoxyethylfatty acid glyceride [Cremophor EL manufactured by Sigma] was prepared, diluted with a saline solution to the desired concentration, and then administered into the heart in an amount of 0.1 ml through the rubber tube attached to the cannula inserted retrogressively into the aorta. The vasodilating activity was determined by measuring the amount of the solution effluent from the coronary vessel after passing through the aorta by means of an electric drop counter (universal drop counter manufactured by Natsume Seisakusho) and indicated as ED50 value which is the amount necessary for the amount of the effluent solution to increase 50% as compared with those before addition of the test compound.

The subject of data set [6] is mouse pulmonary infraction model. As to the kind of experiment: Antithrombosis activity, mouse pulmonary infraction model, prevention of death and paralysis (0.10 ml epinephrine/collagen). Type of data set: in vivo, mouse (ICR strain). The note with it: 1 h, read-out: Preventive percentage of death + paralysis for 10 minutes or more. The procedure: as §1
According to the G. DiMinno and M. J. Silver method [J. Pharmacol. Exp. Therap., 225 (1) 57-60 (1983)], a solution of the compound to be tested was orally administered to a mouse (ICR strain, male, 4 weeks old), and 0.15 ml of a mixed solution of epinephrine (100 μM) and collagen (150 μg/ml) was intravenously administered to the mouse after one hour, after which the paralytic time was measured. Comparing the paralytic time of the control group, the paralytic time-shortening percentage due to the compound to be tested was determined. The results obtained are shown in Table 4, in which the case where the paralytic time was 15 minutes was calculated as death.
Moreover, the same experiment was repeated, except that 0.10 ml of a mixed solution of epinephrine (100 μM) and collagen (150 μg/ml) was intravenously administered to the mouse and the effect of preventing the appearance of death and a case where the paralytic time was 10 minutes or more was checked and the results thereof are shown in Table 5.
as §2

[7] abbreviates: mouse, oral, 10 mg/kg, challenge after one hour, control 25.7%.

Where a name gives a salt, the structure may show the parent alone. Read-outs that look alike come from different tables or passages of the source.

One may read the LD50 as the dose expected to kill half of the subjects tested. A lower LD50 goes with greater toxicity.

For `CCOC(=O)C1=C(C)NC(C)=C(C(=O)OCCN(C)C/C(C)=C/c2ccc(Oc3cccnc3)cc2)C1c1cccc([N+](=O)[O-])c1` (stereo not drawn) [compound 10], the Effect ratio in data set [1] amounted to 641. In addition, the inhibition in vivo at 10 mg/kg in data set [2] stood at 79.2%. In addition, the 50% lethal dose (LD50) in data set [3] is no less than 30 mg/kg.

In data set [4], `CCOC(=O)C1=C(C)NC(C)=C(C(=O)OCCN(C)C/C(C)=C/c2ccc(Cc3cccnc3)cc2)C1c1cccc([N+](=O)[O-])c1` (stereo not drawn) [compound 4] registered an MDA production-inhibition of 53.6%. For the same compound, in data set [2], the inhibition in vivo at 10 mg/kg stood at 38.6%.

For `COC(=O)C1=C(C)NC(C)=C(C(=O)OCCOC/C(C)=C/c2ccc(Cc3cccnc3)cc2)C1c1cccc([N+](=O)[O-])c1` (stereo not drawn) [compound 17], the “ED50 (amount necessary for the amount of the effluent solution to increase 50%)” value in data set [5] stood at 0.012 μg/i.c. Further, the MDA production-inhibition in data set [4] was determined as 58.6%. Further, the responders at 10 mg/kg in data set [6] (setting [7]) was 100%. In data set [3], the 50% lethal dose (LD50) is no less than 75 mg/kg.

For the compound `CC1=C(C(=O)OCCN(C)C/C=C/c2ccc(Cc3cccnc3)cc2)C(c2cccc([N+](=O)[O-])c2)C(C(=O)OC(C)C)=C(C)N1` (stereo not drawn) [compound 7], the MDA production-inhibition in data set [4] is on record as 52.8%. Further, in data set [2], the inhibition in vivo at 10 mg/kg was 36.4%. In data set [3], the LD50 was no less than 30 mg/kg.

Regarding `CCOC(=O)C1=C(C)NC(C)=C(C(=O)OCCOC/C(C)=C/c2ccc(Cc3cccnc3)s2)C1c1cccc([N+](=O)[O-])c1` (stereo not drawn) [compound 21], the responders at 10 mg/kg in data set [6] (setting [7]) was determined as 80%. Moreover, the median lethal dose (LD50) in data set [3] is no less than 75 mg/kg.

As for `CCOC(=O)C1=C(C)NC(C)=C(C(=O)OCCOC/C=C/c2ccc(Cc3cccnc3)cc2)C1c1cccc([N+](=O)[O-])c1` (stereo not drawn) [compound 16], the “ED50 (amount necessary for the amount of the effluent solution to increase 50%)” value in data set [5] stood at 0.0105 μg/i.c. In data set [4], this compound yielded an MDA production-inhibition of 31.6%. Further, the LD50 in data set [3] was no less than 75 mg/kg.

On to `CC1=C(C(=O)OCCN(C)C/C=C/c2ccc(Cn3ccnc3)cc2)C(c2cccc([N+](=O)[O-])c2)C(C(=O)OC(C)C)=C(C)N1` (stereo not drawn) [compound 9], for which, in data set [4], the MDA production-inhibition is on record as 47.2%. In data set [3], this compound yielded a 50% lethal dose (LD50) of no less than 30 mg/kg.

Take `CCOC(=O)C1=C(C)NC(C)=C(C(=O)OCCCCOC/C(C)=C/c2ccc(Cc3cccnc3)cc2)C1c1cccc([N+](=O)[O-])c1` (stereo not drawn) [compound 30]: in data set [1], the Effect ratio turned out to be 397. This compound also registered a 50% lethal dose (LD50) in data set [3] of no less than 50 mg/kg.

With `COC(=O)C1=C(C)NC(C)=C(C(=O)OCCN(C)C/C(C)=C/c2ccc(Cc3cccnc3)cc2)C1c1cccc([N+](=O)[O-])c1` (stereo not drawn) [compound 2], the MDA production-inhibition in data set [4] amounted to 63.2%. The inhibition in vivo at 10 mg/kg in data set [2] worked out at 84.1%. The LD50 in data set [3] was no less than 30 mg/kg.

With `CCOC(=O)C1=C(C)NC(C)=C(C(=O)OCCOC/C(C)=C/c2ccc(Cc3cccnc3)cc2)C1c1cccc([N+](=O)[O-])c1` (stereo not drawn) [compound 12], the “ED50 (amount necessary for the amount of the effluent solution to increase 50%)” value in data set [5] is given as 0.026 μg/i.c. For the same compound, in data set [1], the Effect ratio amounted to 345. Moreover, the MDA production-inhibition in data set [4] was determined as 48.1%. In addition, in data set [6] (setting [7]), the responders at 10 mg/kg was determined as 77.8%. The compound also had a median lethal dose (LD50) in data set [3] of no less than 75 mg/kg.

Take `CC1=C(C(=O)OCCN(C)C/C(C)=C/c2ccc(Cc3cccnc3)cc2)C(c2cccc([N+](=O)[O-])c2)C(C(=O)OC(C)C)=C(C)N1` (stereo not drawn) [compound 1]: the Effect ratio in data set [1] is listed as 238. In addition, the MDA production-inhibition in data set [4] is on record as 59.4%. Further, in data set [2], the inhibition in vivo at 10 mg/kg turned out to be 52.3%.

For the compound `C/C(=C\c1ccc(Cc2cccnc2)cc1)C(=O)O` [OKY-1581, Sodium (E)-3-[4-(pyridin-3-ylmethyl)phenyl]-2-methylpropenoate, reference compound], the inhibition in vivo at 300 mg/kg in data set [2] (300 mg/kg) was found to be 9.5%. In data set [6] (Mus musculus, po), the responders at 30 mg/kg is 10%.

Regarding `CC1=C(C(=O)OCCNC/C(C)=C/c2ccc(Cc3cccnc3)cc2)C(c2cccc([N+](=O)[O-])c2)C(C(=O)OC(C)C)=C(C)N1` (stereo not drawn) [compound 8], the MDA production-inhibition in data set [4] is on record as 64.9%. For the same compound, the inhibition in vivo at 10 mg/kg in data set [2] is 47.9%. The compound further registered an LD50 in data set [3] of no less than 30 mg/kg.

`COC(=O)C1=C(C)NC(C)=C(C(=O)OCCN(C)Cc2ccccc2)C1c1cccc([N+](=O)[O-])c1` (stereo not drawn) [Nicardipine, 3-[2-(N-benzyl-N-methylamino)ethyl]5-methyl 2,6-dimethyl-4-(3-nitrophenyl)-1,4-dihydropyridine-3,5-dicarboxylate hydrochloride, reference compound]: the “ED50 (amount necessary for the amount of the effluent solution to increase 50%)” value in data set [5] is 0.042 μg/i.c. Further, the Effect ratio in data set [1] came to 220. The same compound registered an MDA production-inhibition in data set [4] of 2.7%. In addition, the inhibition in vivo at 10 mg/kg in data set [2] worked out at 6.3%. For the same compound, in data set [6] (Mus musculus, po), the responders at 10 mg/kg is 0%.

Turning to `CC1=C(C(=O)OCCN(C)C/C(C)=C/c2ccc(Cc3cccnc3)cc2)C(c2ccccc2C(F)(F)F)C(C(=O)OC(C)C)=C(C)N1` (stereo not drawn) [compound 6], in data set [4], the MDA production-inhibition is 60.6%. For the same compound, in data set [2], the inhibition in vivo at 10 mg/kg amounted to 87.9%.

In data set [4], `CC1=C(C(=O)OCCN(C)C/C(C)=C/c2ccc(Cc3cccnc3)cc2)C(c2cccc(Cl)c2Cl)C(C(=O)OC(C)C)=C(C)N1` (stereo not drawn) [compound 5] came in with an MDA production-inhibition of 57.9%. Besides, in data set [2], the inhibition in vivo at 10 mg/kg was 93.9%.

Regarding `CCOC(=O)C1=C(C)NC(C)=C(C(=O)OCCOC/C(C)=C/c2ccc(Oc3cccnc3)cc2)C1c1cccc([N+](=O)[O-])c1` (stereo not drawn) [compound 19], the “ED50 (amount necessary for the amount of the effluent solution to increase 50%)” value in data set [5] is given as 0.017 μg/i.c. Further, in data set [1], the Effect ratio came out at 550. In data set [6] (setting [7]), the responders at 10 mg/kg stood at 77.8%. In data set [3], the LD50 is no less than 75 mg/kg.

With `CC1=C(C(=O)OCCOC/C(C)=C/c2ccc(Cc3cccnc3)cc2)C(c2cccc([N+](=O)[O-])c2)C(C(=O)OC(C)C)=C(C)N1` (stereo not drawn) [compound 29], in data set [5], the “ED50 (amount necessary for the amount of the effluent solution to increase 50%)” value came out at 0.019 μg/i.c. Moreover, the Effect ratio in data set [1] stood at 426. This compound gave an MDA production-inhibition in data set [4] of 56.8%. In addition, in data set [6] (setting [7]), the responders at 10 mg/kg was determined as 90%.

These data come from patent publication US4731370A, “Pyridyl ester containing 1,4-dihydropyridine derivatives and salts thereof and pharmaceutical composition containing the same” (Toyama Chemical Co., Ltd., priority 1984, dated 1988).
